# In patent publication US6461997B1, “Triazole sulfones having herbicidal activity” (Monsanto Technology LLC, priority 1999, dated 2002):
# Experiments:
# ABUTH (velvetleaf) [1] = assay: Pre-emergence herbicidal activity, warm season; assay type: in vivo, Abutilon theophrasti
# How it was run: (§1)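 GR80 values derive from percent inhibition relative to untreated plants, read roughly 14 days after sowing and pre-emergence soil-surface treatment (compound in 50:50 acetone/water; rates typically 10, 30, 100, 300 g/ha). Warm-season weeds grew at 30/21° C day/night, cool-season ones at 18/13° C; an asterisk marks activity without reaching 80% at the highest rate.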
# AMARE (redroot pigweed) = assay: Pre-emergence herbicidal activity, warm season; assay type: in vivo, Amaranthus retroflexus
# How it was run: as §1
# DATST (jimsonweed) = assay: Pre-emergence herbicidal activity, warm season; assay type: in vivo, Datura stramonium
# How it was run: as §1
# ABUTH (velvetleaf) [2] = assay: Pre-plant incorporated (PPI) herbicidal activity, warm season; assay type: in vivo, Abutilon theophrasti
# Description: (§2) In another set of tests, the pre-plant incorporated (PPI) activity of compounds of this invention was evaluated on the same species as for the pre-emergence tests described above. In the PPI tests the following procedure, designed to simulate PPI application, was used.
# (§3) A pre-prepared topsoil mixture (described above) was placed in a pot and compacted to a depth of 1.0 to 1.25 cm from the top of the pot. Seeds of each of several monocotyledonous and dicotyledonous annual plant species were placed on top of the soil. A sufficient quantity of soil to cover the seeds and level fill the pot was weighed into an open container. A known amount of the test compound was dissolved or suspended in an organic solvent and applied by spraying to this cover soil. The cover soil was thoroughly mixed to distribute the test compound throughout the cover soil, and was then applied as a cover layer over the seeds. Untreated soil was used as a cover layer for control pots. After treatment the plants were placed in a greenhouse where they received 0.64 cm of overhead irrigation. All subsequent watering consisted of a light overhead mist and/or subirrigation as needed for germination and growth. Tables 9 and 10 below relate to warm season plant species which were placed after pre-emergence treatment in a greenhouse with a 30/21° C. day/night temperature regime. Tables 11 and 12 below relates to cool season plant species placed after pre-emergence treatment in a greenhouse or growth chamber with an 18/13° C. day/night temperature regime. Only the compounds of Examples 1, 6, 8, 11, 13 and 15-20 were included in PPI tests.
# (§4) Approximately 14 days after planting and treating, the plants were observed and herbicidal efficacy recorded as percent inhibition by comparison with untreated plants.
# [3] = tested on: CIRAR (canada thistle (seedling)); assay: as above; assay type: in vivo, Cirsium arvense; details: GR80 = lowest tested rate with 80% or greater inhibition, approx. 14 days after treating, 30/21° C.
# Description: as §2, §3, §4
# [4] = tested on: GALAP (catchweed bedstraw); assay: Pre-plant incorporated (PPI) herbicidal activity, cool season; assay type: in vivo, Galium aparine; details: pre-plant incorporated; lowest tested rate with 80% or greater inhibition; about 14 days
# Description: as §2, §3, §4
# KCHSC (kochia) = assay: as above; assay type: in vivo, Kochia scoparia; details: pre-plant incorporated; lowest tested rate with 80% or greater inhibition; about 14 days
# Description: as §2, §3, §4
# [5] = tested on: VERPE (creeping speedwell); assay: as above; assay type: in vivo, Veronica persicaria; details: pre-plant incorporated; lowest tested rate with 80% or greater inhibition; about 14 days
# Description: as §2, §3, §4
# [6] = tested on: LAMPU (purple deadnettle); assay: as above; assay type: in vivo, Lamium purpureum; details: pre-plant incorporated; lowest tested rate with 80% or greater inhibition; about 14 days
# Description: as §2, §3, §4
# SETVI (green foxtail) = assay: as above; assay type: in vivo, Setaria viridis; details: pre-plant incorporated; lowest tested rate with 80% or greater inhibition; about 14 days
# Description: as §2, §3, §4
# [7] = GR80 = lowest tested rate (300, 100, 30, 10 g/ha) with 80% or greater inhibition, approx. 14 days after treating, 30/21° C.
structure (smiles),measurement,setting,value
"CCN(CC)C(=O)n1cnc(S(=O)(=O)C(F)F)n1 [Example 15, 1-(N,N-diethylcarbamoyl)-3-(difluoromethylsulfonyl)-1,2,4-triazole]",inhibition at 10 g/ha,"ABUTH (velvetleaf) [1]; Abutilon theophrasti, pre-emergence application, 10 g/ha, read-out: Percent inhibition, weed ABUTH",0%
same,inhibition at 30 g/ha,"ABUTH (velvetleaf) [1]; Abutilon theophrasti, pre-emergence application, 30 g/ha, read-out: Percent inhibition, weed ABUTH",0%
same,inhibition at 100 g/ha,"ABUTH (velvetleaf) [1]; Abutilon theophrasti, pre-emergence application, 100 g/ha, read-out: Percent inhibition, weed ABUTH",0%
same,inhibition at 300 g/ha,"ABUTH (velvetleaf) [1]; Abutilon theophrasti, pre-emergence application, 300 g/ha, read-out: Percent inhibition, weed ABUTH",0%
same,inhibition at 900 g/ha,"ABUTH (velvetleaf) [1]; Abutilon theophrasti, pre-emergence application, 900 g/ha, read-out: Percent inhibition, weed ABUTH",0%
same,Pre-emergence activity (GR80) ABUTH,ABUTH (velvetleaf) [1]; [7],300 g/ha
same,inhibition at 10 g/ha,"AMARE (redroot pigweed); Amaranthus retroflexus, pre-emergence application, 10 g/ha, read-out: Percent inhibition, weed AMARE",0%
same,inhibition at 30 g/ha,"AMARE (redroot pigweed); Amaranthus retroflexus, pre-emergence application, 30 g/ha, read-out: Percent inhibition, weed AMARE",0%
same,inhibition at 100 g/ha,"AMARE (redroot pigweed); Amaranthus retroflexus, pre-emergence application, 100 g/ha, read-out: Percent inhibition, weed AMARE",0%
same,inhibition at 300 g/ha,"AMARE (redroot pigweed); Amaranthus retroflexus, pre-emergence application, 300 g/ha, read-out: Percent inhibition, weed AMARE",40%
same,inhibition at 900 g/ha,"AMARE (redroot pigweed); Amaranthus retroflexus, pre-emergence application, 900 g/ha, read-out: Percent inhibition, weed AMARE",95%
same,Pre-emergence activity (GR80) AMARE,AMARE (redroot pigweed); [7],30 g/ha
same,inhibition at 10 g/ha,"DATST (jimsonweed); Datura stramonium, pre-emergence application, 10 g/ha, read-out: Percent inhibition, weed DATST",0%
same,inhibition at 30 g/ha,"DATST (jimsonweed); Datura stramonium, pre-emergence application, 30 g/ha, read-out: Percent inhibition, weed DATST",0%
same,inhibition at 100 g/ha,"DATST (jimsonweed); Datura stramonium, pre-emergence application, 100 g/ha, read-out: Percent inhibition, weed DATST",0%
same,inhibition at 300 g/ha,"DATST (jimsonweed); Datura stramonium, pre-emergence application, 300 g/ha, read-out: Percent inhibition, weed DATST",0%
same,Pre-emergence activity (GR80) DATST,DATST (jimsonweed); [7],300 g/ha
same,inhibition at 10 g/ha,"ABUTH (velvetleaf) [2]; Abutilon theophrasti, PPI application, 10 g/ha, read-out: Percent inhibition ABUTH",0%
same,inhibition at 30 g/ha,"ABUTH (velvetleaf) [2]; Abutilon theophrasti, PPI application, 30 g/ha, read-out: Percent inhibition ABUTH",0%
same,inhibition at 100 g/ha,"ABUTH (velvetleaf) [2]; Abutilon theophrasti, PPI application, 100 g/ha, read-out: Percent inhibition ABUTH",20%
same,inhibition at 300 g/ha,"ABUTH (velvetleaf) [2]; Abutilon theophrasti, PPI application, 300 g/ha, read-out: Percent inhibition ABUTH",50%
same,inhibition at 900 g/ha,"ABUTH (velvetleaf) [2]; Abutilon theophrasti, PPI application, 900 g/ha, read-out: Percent inhibition ABUTH",40%
same,PPI activity (GR80) ABUTH,"ABUTH (velvetleaf) [2]; pre-plant incorporated, GR80 = lowest tested rate with 80% or greater inhibition, approx. 14 days after treating, 30/21° C.",100 g/ha
same,PPI activity (GR80) CIRAR,[3],100 g/ha
same,"PPI activity GR80, GALAP",[4],30 g/ha
same,"PPI activity GR80, KCHSC",KCHSC (kochia),100 g/ha
same,"PPI activity GR80, VERPE",[5],300 g/ha
same,"PPI activity GR80, LAMPU",[6],300 g/ha
same,"PPI activity GR80, SETVI",SETVI (green foxtail),100 g/ha
